From patent US20140066385A1, “METHOD FOR TREATING CANCER BY COMBINED USE OF DRUGS” (Astellas Pharma Inc., priority 2011, published 2014)

How the values were obtained:
Assay type in all cases: in vivo, nude mice
[1] = test system: human non-small cell lung cancer (Calu-6); assay: Example 3: dose dependency of FK330 in enhancing paclitaxel in Calu-6 tumor-bearing mice; settings: Day 59; for tumor volume at the end of the study: mean±SEM
Method: Preparation of the test substances and conditioning of the cells were carried out in the same manner as in Example 2.
(§1) Five-week old male nude mice (CAnN Cg-Foxn1nu/CrlCrlj(nu/nu)) were purchased from Charles River Laboratories Japan, Inc. (Japan, Kanagawa). The animals were raised under specific pathogen-free (SPF) conditions throughout the test period by feeding standard feedstuff and drinking water. The cultured cells were subcutaneously inoculated into the dorsal region of the nude mice at a concentration of 3×10^6 cells/0.1 mL/mouse. Nude mice which had the tumor volumes (major axis×[minor axis]^2×0.52) ranging from 123.3 mm^3 to 274.4 mm^3 were assigned by using SAS to minimize the fluctuation in the tumor volume between the groups and within the group.
The first day of administration was designated as Day 0, and observation was made until Day 59. The respective groups (n=5) were treated as follows. FK330 was orally gavaged in an amount of 5 mL/kg, and paclitaxel was administered intravenously through the tail vein in an amount of 10 mL/kg. Paclitaxel was continuously administered from Day 0 to Day 5, and then was withdrawn for 21 days. This was defined as one cycle, and administration was carried out up to two cycles.
Paclitaxel single administration group: Paclitaxel 10 mg/kg/day (continuously administered for six days from Day 0 in Cycle 1, and continuously administered for 6 days from Day 27 in Cycle 2)
FK330 30 mg/kg bid (60 mg/kg/day)+paclitaxel 10 mg/kg/day (continuously administered for 6 days from Day 0 in Cycle 1, and continuously administered for 6 days from Day 27 in Cycle 2)
FK330 60 mg/kg bid (120 mg/kg/day)+paclitaxel 10 mg/kg/day (continuously administered for 6 days from Day 0 in Cycle 1, and continuously administered for 6 days from Day 27 in Cycle 2)
FK330 100 mg/kg bid (200 mg/kg/day)+paclitaxel 10 mg/kg/day (continuously administered for 6 days from Day 0 in Cycle 1, and continuously administered for 6 days from Day 27 in Cycle 2)
FK330 was orally gavaged (5 mL/kg) twice a day at an interval of 6 to 8 hours. Paclitaxel was administered by intravenous bolus injection (10 mL/kg) through the tail vein 2 to 4 hours after the administration of FK330.
(§2) Every 2 to 4 days, the body weight and the tumor diameters, determined by using a digital caliper, were measured. The tumor volume was calculated from the calculation formula for ellipsoid volume of (major axis×[minor axis]^2×0.52).

[2] = test system: human gastric cancer (MKN-28); assay: Example 5: FK330 with paclitaxel in MKN-28 tumor-bearing mice; settings: for tumor volume on the last day of experiment: MKN-28, Day 84, mean±SEM
Method: (§3) Preparation of the test substances was carried out in the same manner as in Example 2.
(§4) Human gastric cancer-derived NCI-N87 (CRL-5822) was obtained from American Type Culture Collection (VA, USA), MKN-28 (JCRB0253) was obtained from Health Science Research Resources Bank (HSRRB), and AZ-521 (RCB2087) was obtained from Riken BRC. NCI-N87 and MKN-28 cells were cultured under the conditions of 37° C. and 5% CO2 by using RPMI1640 medium containing 10% heat-inactivated fetal bovine serum (FBS), and AZ-521 cells were cultured under the conditions of 37° C. and 5% CO2 by using DMEM medium containing 10% heat-inactivated FBS. The cells were harvested with trypsin and were suspended in PBS at 6×10^7 cells/mL, and the suspension was mixed with an equal amount of Matrigel (trade name) Basement Membrane Matrix (manufactured by Becton Dickinson Co., Bedford, Mass., USA).
as §1, with “Nude mice which had the tumor volumes (major axis×[minor axis]^2×0.52) ranging from 123.3 mm^3 to 274.4 mm^3 were assigned by using SAS to minimize the fluctuation in the tumor volume between the groups and within the group.” left out
as §2
(§5) The results are expressed as the mean value (Mean)±standard error (SEM). Using the actual measured values of the tumor volume at each measurement time point, an unpaired statistical test (Student's t-test) of the difference between two groups was carried out between a single administration group and a combined use group. […]

[3] = test system: human gastric cancer (NCI-N87); assay: Example 5: FK330 with paclitaxel in NCI-N87 tumor-bearing mice; settings: for tumor volume on the last day of experiment: NCI-N87, Day 56, mean±SEM
Method: as §3, §4
as §1, with “Nude mice which had the tumor volumes (major axis×[minor axis]^2×0.52) ranging from 123.3 mm^3 to 274.4 mm^3 were assigned by using SAS to minimize the fluctuation in the tumor volume between the groups and within the group.” left out
as §2, §5

[4] = combined use group paclitaxel + FK330 100 mg/kg bid

## CC(=O)O[C@H]1C(=O)[C@@]2(C)[C@H]([C@H](OC(=O)c3ccccc3)[C@]3(O)C[C@H](OC(=O)[C@H](O)[C@@H](NC(=O)c4ccccc4)c4ccccc4)C(C)=C1C3(C)C)[C@]1(OC(C)=O)CO[C@@H]1C[C@@H]2O [paclitaxel, reference compound]
[1]; paclitaxel-only group, 10 mg/kg/day i.v., two cycles
  tumor volume at the end of the study: 1640.1±902.8 mm^3
[2]; paclitaxel-only group 10 mg/kg/day i.v., three cycles
  tumor volume on the last day of experiment: 454.1±147.5 mm^3
[3]; paclitaxel-only group 10 mg/kg/day i.v., two cycles
  tumor volume on the last day of experiment: 492.0±48.5 mm^3

## O=C(/C=C/c1ccc(Cl)cc1)N[C@@H](Cc1ccccn1)C(=O)NCC(=O)N1CCC(Oc2cc(C(F)(F)F)ncn2)CC1 [FK330, N^2-[(2E)-3-(4-chlorophenyl)-2-propenoyl]-N-[2-oxo-2-(4-{[6-(trifluoromethyl)pyrimidin-4-yl]oxy}piperidin-1-yl)ethyl]-3-pyridin-2-yl-L-alaninamide]
[1]; FK330 30 mg/kg bid + paclitaxel 10 mg/kg/day
  tumor volume reduction ratio compared with the paclitaxel-only group: 41.7%
[1]; FK330 30 mg/kg bid combined use group with paclitaxel 10 mg/kg/day
  tumor volume at the end of the study: 955.9±231.0 mm^3
[1]; FK330 60 mg/kg bid + paclitaxel 10 mg/kg/day
  tumor volume reduction ratio compared with the paclitaxel-only group: 56.9%
[1]; FK330 60 mg/kg bid combined use group with paclitaxel 10 mg/kg/day
  tumor volume at the end of the study: 706.2±256.1 mm^3
[1]; FK330 100 mg/kg bid + paclitaxel 10 mg/kg/day
  tumor volume reduction ratio compared with the paclitaxel-only group: 81.8%
[1]; FK330 100 mg/kg bid combined use group with paclitaxel 10 mg/kg/day
  tumor volume at the end of the study: 297.9±101.4 mm^3
[2]; [4]
  tumor volume on the last day of experiment: 164.8±18.5 mm^3
[2]; MKN-28, last day, FK330 100 mg/kg bid + paclitaxel, P=0.08
  tumor volume decrease compared with the paclitaxel-only group: 63.7%
[3]; [4]
  tumor volume on the last day of experiment: 223.9±85.1 mm^3
[3]; NCI-N87, last day, FK330 100 mg/kg bid + paclitaxel, P<0.03
  tumor volume decrease compared with the paclitaxel-only group: 54.5%
